Experimental data published in patent US20260166033A1, “USE OF A FGFR3 TYROSINE KINASE INHIBITOR FOR THE TREATMENT OF FGFR-RELATED BONE REPAIR AND BONE FORMATION IMPAIRMENTS” (INSTITUT NATIONAL DE LA SANTÉ ET DE LA RECHERCHE MÉDICALE, priority 2021, published 2026).

How the values were obtained:
[1] = tested on: mouse model of ACH (Fgfr3Y367C/+); conditions: Fgfr3Y367C/+ mice; Komla Ebri et al 2016, Biosse Duplan et al 2016; cited from earlier work
HCH mice (Fgfr3^N534K/+) = test: Non-stabilized mandibular fracture bone repair in the HCH mouse model, microCT scans and repair grade; assay type: in vivo
Protocol: Mandibular bone repair was studied in the HCH mouse model (Fgfr3^N534K/+). The experiments were performed in adult animals at 6 weeks of age, and mice were euthanized at 4 key points: during bone repair (10, 14, 21 days post fracture), and at the end of the normal bone healing process i.e. at 28 days post fracture.
Vertical mandibular fractures were performed in the ascending ramus region in Fgfr3^N534K/+ and Fgfr3^+/+ mice. This is a non-stabilized mandibular fracture protocol allowing to analyze the endochondral bone repair process.
Four batches (n=100) of Fgfr3^N534K/+ and Fgfr3^+/+ mandible fractures corresponding to different key stages of repair were studied (day 10, day 14, day 21, day 28). Using collagen type II (proliferative cartilage), type X (hypertrophic cartilage) and type I (bone) immunolabelling, we observed that the endochondral process is disturbed, we noted a delayed cartilage resorption, a reduction in the size of hypertrophic chondrocytes area and a defect in bone formation within the repair callus in Fgfr3^N534K/+ compared to Fgfr3^+/+. […] We observed the presence of pseudarthrosis (fibrosis in the callus) in Fgfr3^N534K/+ mice whereas we observed 100% of bone in Fgfr3^+/+ callus. Considering the quality of the newly formed bone at day 28, we defined four grades of repair and classified the mice according to their repair grade (from 1 to 4). The defective repair is significant in Fgfr3^N534K/+ compared to Fgfr3^+/+ (FIG. 1C).
HCH mice (Fgfr3^N534K/+) were treated with infigratinib (subcutaneous injections at 4 mg/kg, 3 times per week) from day 0 (facture of the mandible) to day 14 or day 28. The bone repair analyses were evaluated by microCT scans at day 14 and day 28 post fracture (FIGS. 1A and 1B). We quantified BV/TV (Bone Volume/Total Volume) and Callus volume (ratio TV (total volume) of the callus/TV of the contralateral ascending ramus region).

[2] = day 28 grade repair, treated Fgfr3^N534K/+ mice

Q: With `CCN1CCN(c2ccc(Nc3cc(N(C)C(=O)Nc4c(Cl)c(OC)cc(OC)c4Cl)ncn3)cc2)CC1` [BGJ398, 3-(2,6-dichloro-3,5-dimethoxyphenyl)-1-[6-[4-(4-ethylpiperazin-1-yl)anilino]pyrimidin-4-yl]-1-methylurea] as the compound, how does the “Effect on affected skeletal elements (long bones, vertebrae, intervertebral discs, craniofacial morphology, foramen magnum)” value [1] read?
A: improvement of many of the affected skeletal elements in ACH

Q: And the “Effect on defective bone reparation of the callus (summary in words)” value (HCH mice (Fgfr3^N534K/+); HCH mandible, non-stabilized fracture)?
A: partially restore the defective bone reparation of the callus, increases the bone volume/total volume without pseudarthrosis

Q: What about the “Callus volume (ratio TV of the callus/TV of the contralateral ascending ramus region), treated vs untreated HCH mice” value (HCH mice (Fgfr3^N534K/+); day 14 post fracture, subcutaneous 4 mg/kg, 3 times per week from day 0, microCT) of the same compound?
A: unchanged

Q: What about the “BV/TV (Bone Volume/Total Volume), change in treated vs untreated HCH mice” value (HCH mice (Fgfr3^N534K/+); day 14 post fracture, subcutaneous 4 mg/kg, 3 times per week from day 0, microCT, p<0.05) of the same compound?
A: +20.8%

Q: And the “Complete bone healing (grade 1), mice with this repair grade” value (HCH mice (Fgfr3^N534K/+); [2])?
A: 7/10

Q: And the “Restoration of bone continuity, but presence of mild bone defects (grade 2), mice with this repair grade” value (HCH mice (Fgfr3^N534K/+); [2])?
A: 3/10

Q: What about the “Callus volume, change in treated vs untreated HCH mice” value (HCH mice (Fgfr3^N534K/+); day 28 post fracture, subcutaneous 4 mg/kg, 3 times per week from day 0, microCT, p<0.0001) of the same compound?
A: −38.6%

Q: And the “BV/TV (Bone Volume/Total Volume), change in treated vs untreated HCH mice” value (HCH mice (Fgfr3^N534K/+); day 28 post fracture, subcutaneous 4 mg/kg, 3 times per week from day 0, microCT, p<0.01)?
A: +17.8%
